Data set [1] is described as follows: Toxicity (weight loss and deaths) in mice after daily i.p. injection for four consecutive days, observed up to 12 days (Example 10). It counts as in vivo, mice (male albino CDI). On the procedure: (§1) A group of 10 male albino CDI mice from Charles Riner, France, is given an i.p. injection of the test compound in aqueous solution daily for four consecutive days. Half of the animals are killed by decapitation 24 hours after the last dose of the test compound. The other half of the animals are observed for up to 12 days for toxicity (as indicated by weight loss and deaths). Control animals receive an injection of the vehicle only.
(§2) When tested as described above, 1-fluoro-2,4-diaminobutane (MFDB) and 1,1-difluoro-2,4-diaminobutane (DFDB) gave the results set forth in Table I below: […]

Another data set has as its system GABA-T. As to the kind of experiment: GABA-T inhibition in mouse brain after daily i.p. injection for four consecutive days (Example 10). The note with it: 24 hours after last dose. It counts as in vivo, mice (male albino CDI). On the procedure: as §1
The brains are removed from the dead mice and are divided into two portions by sagittal section. One half is used for the measurement of GABA-T activity while the other half is used for measuring GABA content. The GABA-T activity is measured using known methods as described by M. Jung et al., J. Neurochem., 28, 717 (1977) and 29, 797 (1977). GABA content is measured by perchloric acid or trichloroacetic acid extracts using an amino acid analyzer equiped with a fluorescene detector.
as §2

The mark [2] stands for this setting: 5 mg/kg daily i.p. for 4 days, observed up to 12 days.

Consider 2 compounds from patent publication US4435425A, “Fluorinated diaminobutane derivatives” (Merrell Toraude et Compagnie, priority 1982, dated 1984).

Structures are written as SMILES.

Take `NCCC(N)CF` (stereo not drawn) [MFDB, 1-Fluoro-2,4-diaminobutane]: the “Weight Loss” value in data set [1] (5 mg/kg daily i.p. for 4 days) was 0%; in data set [1] (10 mg/kg daily i.p. for 4 days) it was 0%; in data set [1] (25 mg/kg daily i.p. for 4 days), -20%; in data set [1] (50 mg/kg daily i.p. for 4 days), -35%. In addition, the “Morality (After treatment)” value is 0/5 in data set [1] (setting [2]); 0/5 in data set [1] (10 mg/kg daily i.p. for 4 days, observed up to 12 days); 2/5 in data set [1] (25 mg/kg daily i.p. for 4 days, on day 12); 3/5 in data set [1] (50 mg/kg daily i.p. for 4 days, on day 8). The “GABA-T Inhibition” value in the data set with GABA-T (5 mg/kg daily i.p. for 4 days) is 39.7%; with GABA-T (10 mg/kg daily i.p. for 4 days), 49.8%; with GABA-T (25 mg/kg daily i.p. for 4 days) it was 74%; in the data set on GABA-T (50 mg/kg daily i.p. for 4 days) it was 79%.
In the case of `NCCC(N)C(F)F` (stereo not drawn) [DFDB, 1,1-Difluoro-2,4-diaminobutane], the “Weight Loss” value in data set [1] (2 mg/kg daily i.p. for 4 days) was 0%; in data set [1] (5 mg/kg daily i.p. for 4 days), 0%; in data set [1] (10 mg/kg daily i.p. for 4 days) it was -25%; in data set [1] (20 mg/kg daily i.p. for 4 days), -30%. The “Morality (After treatment)” value in data set [1] (2 mg/kg daily i.p. for 4 days, observed up to 12 days) is reported as 0/5; in data set [1] (setting [2]) it was 0/5; in data set [1] (10 mg/kg daily i.p. for 4 days, by day 8), 2/5; in data set [1] (20 mg/kg daily i.p. for 4 days, by day 6), 5/5. Further, the “GABA-T Inhibition” value in the data set with GABA-T (2 mg/kg daily i.p. for 4 days) was 69.5%; in the data set with GABA-T (5 mg/kg daily i.p. for 4 days), 71.4%; in the data set with GABA-T (10 mg/kg daily i.p. for 4 days), 81%; in the data set with GABA-T (20 mg/kg daily i.p. for 4 days), 96.7%.
